Experimental data from BindingDB's records for doi:10.1016/j.bmcl.2010.07.082 (Ligand Pharmaceuticals, 2010).

Test: Antagonist activity at CCR1 in human THP1 cells assessed as inhibition of CCL3-induced chemotaxis after 3 hrs

Row | SMILES | IC50 [nM]
1 | Cc1nnc([C@H]2CCCN2C(=O)Nc2ccc(C(F)(F)F)cc2)n1Cc1ccc(Cl)cc1 [(R)-2-(4-(4-chlorobenzyl)-5-methyl-4H-1,2,4-triazol-3-yl)-N-(4-(trifluoromethyl)phenyl)pyrrolidine-1-carboxamide] | 2.9
2 | O=C(Nc1ccc(C(F)(F)F)cc1)N1CCC[C@@H]1c1ncnn1Cc1ccc(Cl)cc1 [(R)-2-(1-(4-chlorobenzyl)-1H-1,2,4-triazol-5-yl)-N-(4-(trifluoromethyl)phenyl)pyrrolidine-1-carboxamide] | 22

Now from value to compound:

Row | IC50 [nM] | SMILES
3 | 16 | O=C(Nc1ccc(C(F)(F)F)cc1)N1CCCC1c1nccn1Cc1ccc(Cl)cc1 (stereo not given) [2-(1-(4-chlorobenzyl)-1H-imidazol-2-yl)-N-(4-(trifluoromethyl)phenyl)pyrrolidine-1-carboxamide]
4 | 6.5 | O=C(Nc1ccc(C(F)(F)F)cc1)N1CCC[C@@H]1c1nnnn1Cc1ccc(Cl)cc1 [(R)-2-(1-(4-chlorobenzyl)-1H-tetrazol-5-yl)-N-(4-(trifluoromethyl)phenyl)pyrrolidine-1-carboxamide]
5 | 4 | O=C(Nc1ccc(C(F)(F)F)cc1)N1CCC[C@@H]1c1nncn1Cc1ccc(Cl)cc1 [(R)-2-(4-(4-chlorobenzyl)-4H-1,2,4-triazol-3-yl)-N-(4-(trifluoromethyl)phenyl)pyrrolidine-1-carboxamide]
